# From patent publication US10881110B2, “Herbicidal compositions comprising isoxazolo[5,4-b]pyridines” (BASF SE, priority 2014, dated 2021)
# Read-outs that look alike come from different tables or passages of the source.
# What was measured:
# Assay in all cases: greenhouse post-emergence herbicidal test
# GERDI = assay type: in vivo, Geranium dissectum; design: key to herbicidal activity against GERDI found: rating on a scale from 0 to 100; settings: post emergence
# Summary of the method: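 Each species was sown separately, grown to a height of 1 to 15 cm and then sprayed with water-dispersed components A, B and where relevant C. Growth conditions were 10-25° C or 20-35° C, and percent damage was recorded at 20 days.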
# GERPU = assay type: in vivo, Geranium pusillum; settings: application rate a.i.: I.1 31.25 g/ha
# Procedure: (§1) The culture containers used were plastic pots containing medium loamy sand with approximately 4.6% of humus and 69.9% sand as substrate. The seeds of the test plants were sown separately for each species.
# (§2) For the post-emergence treatment, the test plants were grown to a plant height of from 1 to 15 cm, depending on the plant habit, and only then treated with the active compounds which had been suspended or emulsified in water. To this end, the test plants were either sown directly, and grown in the same containers, or they were first grown separately as seedlings and transplanted into the test containers a few days prior to treatment.
# (§3) Depending on the species, the plants were kept at 10-25° C. and 20-35° C., respectively.
# (§4) The test period extended over 1 to 3 weeks. During this time, the plants were tended and their response to the individual treatments was evaluated 20 days after treatment except mentioned otherwise.
# (§5) Evaluation was carried out using a scale from 0 to 100. 100 means no emergence of the plants, or complete destruction of at least the above-ground parts, and 0 means no damage or normal course of growth.
# (§6) The respective stated components A and B, and, if appropriate, C, were formulated as a 10% by weight strength emulsion concentrate and, with addition of the amount of solvent system, introduced into the spray liquor used for applying the active compound. In the examples, the solvent used was water.
# (§7) In the examples below, using the method of S. R. Colby (1967) “Calculating synergistic and antagonistic responses of herbicide combinations”, Weeds 15, p. 22 ff., the value E, which is expected if the activity of the individual active compounds is only additive, was calculated. E=X+Y−(X·Y/100)
# KCHSC = assay type: in vivo, Kochia scoparia; design: key to herbicidal activity against KCHSC found: rating on a scale from 0 to 100; settings: post emergence
# Summary of the method: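 Post-emergence greenhouse test: plants in loamy sand, sprayed at 1–15 cm height with aqueous spray liquor from 10% emulsion concentrates, kept at 10-25 °C or 20-35 °C by species. Damage scored 0–100 (100 = complete destruction), usually 20 days after treatment. Expected additive effect E from Colby: E=X+Y−(X·Y/100).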
# LOLMU = assay type: in vivo, Lolium multiflorum
# Procedure: as §1, §2, §3, §4, §5, §6, §7
# SEBEX = assay type: in vivo, Sesbania exaltata; settings: application rate a.i.: I.1 31.25 g/ha
# Procedure: as §1, §2, §3, §4, §5, §6, §7
# [1] = a.i. g/ha: I.1 62.5, B.67 125, 20 days after treatment
# [2] = applied alone at 31.25 g/ha a.i.
# [3] = B.139 (pyroxasulfone) 25 g/ha, alone or as mixture (composition 1.139)
# [4] = B.87 (carfentrazone-ethyl) 1.75 g/ha, alone or as mixture (composition 1.87)
smiles,measurement,setting,value
O=C(O)c1cc(C2CC2)nc2onc(C3CC3)c12 [I.1],herbicidal activity against GERDI found,"GERDI; a.i. g/ha: I.1 31.25, B.67 125, 20 days after treatment, sub-table r36-r43",30%
same,herbicidal activity against GERDI found,GERDI; [1],40%
same,herbicidal activity against GERDI found,"GERDI; application rate a.i.: I.1 31.25 g/ha, B.100 (isoxaflutole) 12.5 g/ha, alone or as mixture (composition 1.100)",60
same,herbicidal activity against GERDI found,"GERDI; application rate a.i.: I.1 31.25 g/ha, B.40 (imazethapyr) 7.5 g/ha, alone or as mixture (composition 1.40)",30
same,herbicidal activity against GERDI found,"GERDI; application rate a.i.: I.1 62.5 g/ha, B.100 (isoxaflutole) 12.5 g/ha, alone or as mixture (composition 1.100)",65
same,herbicidal activity against GERDI found,"GERDI; application rate a.i.: I.1 62.5 g/ha, B.30 (imazamox) 3.75 g/ha, alone or as mixture (composition 1.030)",85
same,herbicidal activity against GERDI found,"GERDI; application rate a.i.: I.1 62.5 g/ha, B.40 (imazethapyr) 7.5 g/ha, alone or as mixture (composition 1.40)",70
same,herbicidal activity against GERDI found,"GERDI; application rate a.i.: I.1 62.5 g/ha, B.87 (carfentrazone-ethyl) 1.75 g/ha, alone or as mixture (composition 1.87)",85
same,herbicidal activity against GERDI found,"GERDI; application rate a.i.: I.1 125 g/ha, B.113 (glyphosate) 135 g/ha, alone or as mixture (composition 1.113)",80
same,herbicidal activity against GERDI found,"GERDI; application rate a.i.: I.1 250 g/ha, B.193 15 g/ha, alone or as mixture (composition 1.193)",95
same,herbicidal activity against GERDI found,GERDI; [2],65
same,herbicidal activity against GERDI found,"GERDI; g/ha a.i.: I.1 31.25, B.52 2.5, mixture 31.25+2.5",50
same,herbicidal activity against GERDI found,"GERDI; g/ha a.i.: I.1 62.5, B.52 2.5, mixture 62.5+2.5",65
same,herbicidal activity against GERDI found,"GERDI; g/ha a.i.: I.1 125, B.52 2.5, mixture 125+2.5",65
same,"herbicidal activity against GERPU, found","GERPU; B.139 (pyroxasulfone) 12.5 g/ha, alone or as mixture (composition 1.139)",80
same,"herbicidal activity against GERPU, found",GERPU; [3],80
same,"herbicidal activity against GERPU, found",GERPU; [4],80
same,pest or weed control at 31.25 g/ha,"KCHSC; Bassia scoparia, post-emergence, 480 h, I.1 alone 31.25 g/ha a.i., read-out: herbicidal activity against KCHSC found",70%
same,pest or weed control at 62.5 g/ha,"KCHSC; Bassia scoparia, post-emergence, 480 h, I.1 alone 62.5 g/ha a.i., read-out: herbicidal activity against KCHSC found",85%
same,pest or weed control at 31.25 g/ha,"KCHSC; Bassia scoparia, post-emergence, 480 h, 31.25 g/ha a.i., read-out: herbicidal activity against KCHSC found",75%
same,pest or weed control at 125 g/ha,"KCHSC; Bassia scoparia, post-emergence, 480 h, I.1 125 g/ha a.i., read-out: herbicidal activity against KCHSC found",95%
same,pest or weed control at 15.625 g/ha,"KCHSC; Bassia scoparia, post-emergence, 480 h, single active, 15.625 g/ha a.i., read-out: herbicidal activity against KCHSC found",0%
same,pest or weed control at 31.25 g/ha,"KCHSC; Bassia scoparia, post-emergence, 480 h, single active, 31.25 g/ha a.i., read-out: herbicidal activity against KCHSC found",30%
same,pest or weed control at 62.5 g/ha,"KCHSC; Bassia scoparia, post-emergence, 480 h, single active, 62.5 g/ha a.i., read-out: herbicidal activity against KCHSC found",70%
same,herbicidal activity against KCHSC found,"KCHSC; 6 days after treatment, g/ha a.i.: I.1 31.25, B.96 35, mixture 31.25+35",10
same,herbicidal activity against KCHSC found,"KCHSC; 6 days after treatment, g/ha a.i.: I.1 31.25, B.96 70, mixture 31.25+70",10
same,herbicidal activity against KCHSC found,"KCHSC; 6 days after treatment, g/ha a.i.: I.1 31.25, B.96 140, mixture 31.25+140",10
same,herbicidal activity against KCHSC found,"KCHSC; 6 days after treatment, g/ha a.i.: I.1 31.25, naptalam 100, mixture 31.25+100",10
same,herbicidal activity against KCHSC found,"KCHSC; 6 days after treatment, g/ha a.i.: I.1 31.25, naptalam 200, mixture 31.25+200",10
same,herbicidal activity against KCHSC found,"KCHSC; 6 days after treatment, g/ha a.i.: I.1 62.5, B.96 35, mixture 62.5+35",90
same,herbicidal activity against KCHSC found,"KCHSC; 6 days after treatment, g/ha a.i.: I.1 62.5, B.96 70, mixture 62.5+70",90
same,herbicidal activity against KCHSC found,"KCHSC; I.1 15.62 g/ha, B.88 1 g/ha a.i.",45
same,herbicidal activity against KCHSC found,"KCHSC; I.1 31.25 g/ha, B.103 7.5 g/ha a.i.",30
same,herbicidal activity against KCHSC found,"KCHSC; I.1 31.25 g/ha, B.103 15 g/ha a.i.",30
same,herbicidal activity against KCHSC found,"KCHSC; I.1 31.25 g/ha, B.167 62.5 g/ha a.i.",30
same,herbicidal activity against KCHSC found,"KCHSC; I.1 31.25 g/ha, B.88 1 g/ha a.i.",55
same,herbicidal activity against KCHSC found,"KCHSC; I.1 62.5 g/ha, B.103 7.5 g/ha a.i.",70
same,herbicidal activity against KCHSC found,"KCHSC; I.1 62.5 g/ha, B.103 15 g/ha a.i.",70
same,herbicidal activity against KCHSC found,"KCHSC; I.1 62.5 g/ha, B.167 62.5 g/ha a.i.",70
same,herbicidal activity against KCHSC found,"KCHSC; I.1 62.5 g/ha, B.88 1 g/ha a.i.",80
same,herbicidal activity against KCHSC found,KCHSC; [2],80
same,herbicidal activity against KCHSC found,KCHSC; applied alone at 125 g/ha a.i.,95
same,herbicidal activity against KCHSC found,"KCHSC; g/ha a.i.: I.1 31.25, B.24 1, mixture 31.25+1",40
same,herbicidal activity against KCHSC found,"KCHSC; g/ha a.i.: I.1 31.25, B.24 2, mixture 31.25+2",40
same,herbicidal activity against LOLMU found,"LOLMU; a.i. g/ha: I.1 7.8, B.67 125, 20 days after treatment",0%
same,herbicidal activity against LOLMU found,"LOLMU; a.i. g/ha: I.1 15.6, B.67 125, 20 days after treatment",0%
same,herbicidal activity against LOLMU found,"LOLMU; a.i. g/ha: I.1 31.25, B.67 125, 20 days after treatment",0%
same,herbicidal activity against LOLMU found,"LOLMU; a.i. g/ha: I.1 62.5, B.67 62.5, 20 days after treatment",40%
same,herbicidal activity against LOLMU found,LOLMU; [1],20%
same,herbicidal activity against LOLMU found,"LOLMU; a.i. g/ha: I.1 62.5, B.77 75, 20 days after treatment",20%
same,"herbicidal activity against SEBEX, found",SEBEX; [3],80
same,"herbicidal activity against SEBEX, found",SEBEX; [4],75
